Our source for the Ki values is ChEMBL document CHEMBL3638512, “Piperazine compounds” (2013).

The experiment addresses T1, Cathepsin K (Homo sapiens, UniProt P43235).
T1 sequence (P43235 whole entry): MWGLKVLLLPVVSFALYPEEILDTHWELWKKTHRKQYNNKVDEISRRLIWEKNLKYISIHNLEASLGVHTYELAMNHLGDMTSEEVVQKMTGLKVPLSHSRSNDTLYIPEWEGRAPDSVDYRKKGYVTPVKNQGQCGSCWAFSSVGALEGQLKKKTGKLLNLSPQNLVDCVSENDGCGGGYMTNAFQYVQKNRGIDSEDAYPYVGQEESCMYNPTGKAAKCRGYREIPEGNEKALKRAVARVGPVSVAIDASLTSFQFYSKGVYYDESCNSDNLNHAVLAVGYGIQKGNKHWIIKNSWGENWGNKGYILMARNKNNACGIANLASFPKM
As to the kind of experiment: In Vitro Inhibition Assay: In vitro cathepsin inhibition assay.

One may read the Ki as the dissociation constant of the complex between target and ligand, obtained from inhibition or displacement. Low values mean a stronger hold on the target, high ones a looser hold on the target. Turning to `C[C@H]1CN(C(=O)[C@@H](NC(=O)c2ccc(N3CCN(C)CC3)cc2)C(C)(C)C)[C@@H]2C(=O)CO[C@@H]21`, the inhibitory constant (Ki) was determined as 1.1 nM.
